What was measured:
Experiment in all cases: relative viability (nuclei count vs DMSO), 5 days (fraction); higher = more cells survive
[1] = tested on: HARA
Method in brief: (§1)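 A single step with final 0.05% Triton X-100, 1% formaldehyde and 1 ug/ml Hoechst fixed the cells and stained nuclei 5 days after treatment. Lung cancer cell lines in 1536-well plates had been treated by pin tool the day after seeding with one drug alone or a fixed anchor-drug dose plus five library-drug doses (not always all listed) in √10 steps, and nuclei were counted on 4× images. Relative viability is the ratio of nuclei in treated wells to nuclei in vehicle wells, taken as the median of duplicate plates.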

[2] = tested on: HCC-827
Method in brief: as §1

[3] = tested on: NCI-H596
Method in brief: as §1

[4] = tested on: SK-LU-1
Method in brief: as §1

[5] = tested on: NCI-H661
Method in brief: as §1

[6] = tested on: BEN
Method in brief: as §1

[7] = tested on: NCI-H2170
Method in brief: as §1

[8] = tested on: NCI-H2405
Method in brief: as §1

[9] = tested on: NCI-H2087
Method in brief: as §1

[10] = tested on: HCC-366
Method in brief: as §1

[11] = tested on: NCI-H2342
Method in brief: as §1

[12] = tested on: NCI-H2228
Method in brief: as §1

[13] = tested on: LOU-NH91
Method in brief: as §1

[14] = tested on: NCI-H1437
Method in brief: as §1

[15] = tested on: NCI-H1734
Method in brief: as §1

[16] = tested on: NCI-H1792
Method in brief: as §1

[17] = tested on: NCI-H1355
Method in brief: as §1

[18] = tested on: NCI-H2009
Method in brief: as §1

[19] = tested on: SK-MES-1
Method in brief: as §1

[20] = tested on: EKVX
Method in brief: as §1

[21] = tested on: HCC-44
Method in brief: as §1

[22] = tested on: NCI-H1395
Method in brief: as §1

[23] = tested on: NCI-H647
Method in brief: as §1

[24] = tested on: LC-2-ad
Method in brief: as §1

Compound `COc1cc(N2CCC(C(N)=O)CC2)ccc1Nc1nc(N)c(Cl)c(Nc2ccccc2S(=O)(=O)C(C)C)n1` [HG-5-88-01] + COc1cccc2cc(-c3nc([C@H]4CC[C@H](C(=O)O)CC4)n4ncnc(N)c34)[nH]c12 [OSI-027] (partner 0.5 µM) has a relative viability ([1]; first compound 0.04 µM) of 0.378, a relative viability ([1]; first compound 0.1265 µM) of 0.578 and a relative viability ([1]; first compound 0.4 µM) of 0.437. The relative viability ([1]; first compound 1.265 µM) was 0.121, the relative viability ([1]; first compound 4 µM) was 0.144 and the relative viability ([2]; first compound 0.04 µM) was 0.819. It also gave a relative viability ([2]; first compound 0.1265 µM) of 0.89, a relative viability ([2]; first compound 0.4 µM) of 0.8 and a relative viability ([2]; first compound 1.265 µM) of 0.564. It also gave a relative viability ([2]; first compound 4 µM) of 0.406, a relative viability ([3]; first compound 0.04 µM) of 0.61 and a relative viability ([3]; first compound 0.1265 µM) of 0.693. For the same compound, the relative viability ([3]; first compound 0.4 µM) was 0.729, the relative viability ([3]; first compound 1.265 µM) was 0.59 and the relative viability ([3]; first compound 4 µM) was 0.393. For the same compound, the relative viability ([4]; first compound 0.04 µM) was 0.292, the relative viability ([4]; first compound 0.1265 µM) was 0.34 and the relative viability ([4]; first compound 0.4 µM) was 0.278. The relative viability ([4]; first compound 1.265 µM) was 0.235, the relative viability ([4]; first compound 4 µM) was 0.174 and the relative viability ([5]; first compound 0.04 µM) was 0.659. The relative viability ([5]; first compound 0.1265 µM) was 0.709, the relative viability ([5]; first compound 0.4 µM) was 0.684 and the relative viability ([5]; first compound 1.265 µM) was 0.428. For the same compound, the relative viability ([5]; first compound 4 µM) was 0.569, the relative viability ([6]; first compound 0.04 µM) was 0.305 and the relative viability ([6]; first compound 0.1265 µM) was 0.312. The relative viability ([6]; first compound 0.4 µM) was 0.262, the relative viability ([6]; first compound 1.265 µM) was 0.3 and the relative viability ([6]; first compound 4 µM) was 0.262. For the same compound, the relative viability ([7]; first compound 0.04 µM) was 0.716, the relative viability ([7]; first compound 0.1265 µM) was 0.764 and the relative viability ([7]; first compound 0.4 µM) was 0.721. For the same compound, the relative viability ([7]; first compound 1.265 µM) was 0.238, the relative viability ([7]; first compound 4 µM) was 0.601 and the relative viability ([8]; first compound 0.04 µM) was 0.579. It also gave a relative viability ([8]; first compound 0.1265 µM) of 0.559, a relative viability ([8]; first compound 0.4 µM) of 0.539 and a relative viability ([8]; first compound 1.265 µM) of 0.343. For the same compound, the relative viability ([8]; first compound 4 µM) was 0.382, the relative viability ([9]; first compound 0.04 µM) was 0.521 and the relative viability ([9]; first compound 0.1265 µM) was 0.542. It also gave a relative viability ([9]; first compound 0.4 µM) of 0.505, a relative viability ([9]; first compound 1.265 µM) of 0.349 and a relative viability ([9]; first compound 4 µM) of 0.215. The relative viability ([10]; first compound 0.04 µM) was 1.02, the relative viability ([10]; first compound 0.1265 µM) was 0.941 and the relative viability ([10]; first compound 0.4 µM) was 1.02. For the same compound, the relative viability ([10]; first compound 1.265 µM) was 0.577, the relative viability ([10]; first compound 4 µM) was 0.6 and the relative viability ([11]; first compound 0.04 µM) was 0.607. For the same compound, the relative viability ([11]; first compound 0.1265 µM) was 0.527, the relative viability ([11]; first compound 0.4 µM) was 0.611 and the relative viability ([11]; first compound 1.265 µM) was 0.485. The relative viability ([11]; first compound 4 µM) was 0.563, the relative viability ([12]; first compound 0.04 µM) was 0.241 and the relative viability ([12]; first compound 0.1265 µM) was 0.148. The relative viability ([12]; first compound 0.4 µM) was 0.181, the relative viability ([12]; first compound 1.265 µM) was 0.169 and the relative viability ([12]; first compound 4 µM) was 0.172. It also gave a relative viability ([13]; first compound 0.04 µM) of 0.602, a relative viability ([13]; first compound 0.1265 µM) of 0.635 and a relative viability ([13]; first compound 0.4 µM) of 0.615. It also gave a relative viability ([13]; first compound 1.265 µM) of 0.442, a relative viability ([13]; first compound 4 µM) of 0.451 and a relative viability ([14]; first compound 0.04 µM) of 0.836. The relative viability ([14]; first compound 0.1265 µM) was 0.92, the relative viability ([14]; first compound 0.4 µM) was 0.887 and the relative viability ([14]; first compound 1.265 µM) was 0.735. The relative viability ([14]; first compound 4 µM) was 0.83, the relative viability ([15]; first compound 0.04 µM) was 0.59 and the relative viability ([15]; first compound 0.1265 µM) was 0.615. The relative viability ([15]; first compound 0.4 µM) was 0.394, the relative viability ([15]; first compound 1.265 µM) was 0.399 and the relative viability ([15]; first compound 4 µM) was 0.386. For the same compound, the relative viability ([16]; first compound 0.04 µM) was 0.809, the relative viability ([16]; first compound 0.1265 µM) was 0.823 and the relative viability ([16]; first compound 0.4 µM) was 0.794. For the same compound, the relative viability ([16]; first compound 4 µM) was 0.574, the relative viability ([17]; first compound 0.04 µM) was 0.341 and the relative viability ([17]; first compound 0.1265 µM) was 0.419. For the same compound, the relative viability ([17]; first compound 0.4 µM) was 0.3, the relative viability ([17]; first compound 1.265 µM) was 0.253 and the relative viability ([17]; first compound 4 µM) was 0.237. It also gave a relative viability ([18]; first compound 0.04 µM) of 0.565, a relative viability ([18]; first compound 0.1265 µM) of 0.585 and a relative viability ([18]; first compound 0.4 µM) of 0.423. The relative viability ([18]; first compound 1.265 µM) was 0.444, the relative viability ([18]; first compound 4 µM) was 0.353 and the relative viability ([19]; first compound 0.04 µM) was 0.603. It also gave a relative viability ([19]; first compound 0.1265 µM) of 0.569, a relative viability ([19]; first compound 0.4 µM) of 0.492 and a relative viability ([19]; first compound 1.265 µM) of 0.331. The relative viability ([19]; first compound 4 µM) was 0.4, the relative viability ([20]; first compound 0.04 µM) was 0.714 and the relative viability ([20]; first compound 0.1265 µM) was 0.719. It also gave a relative viability ([20]; first compound 0.4 µM) of 0.724, a relative viability ([20]; first compound 4 µM) of 0.535 and a relative viability ([21]; first compound 0.04 µM) of 0.491. The relative viability ([21]; first compound 0.1265 µM) was 0.507, the relative viability ([21]; first compound 0.4 µM) was 0.353 and the relative viability ([21]; first compound 1.265 µM) was 0.392. For the same compound, the relative viability ([21]; first compound 4 µM) was 0.121, the relative viability ([22]; first compound 0.04 µM) was 0.583 and the relative viability ([22]; first compound 0.1265 µM) was 0.66. It also gave a relative viability ([22]; first compound 0.4 µM) of 0.638, a relative viability ([22]; first compound 1.265 µM) of 0.646 and a relative viability ([22]; first compound 4 µM) of 0.631. It also gave a relative viability ([23]; first compound 0.04 µM) of 0.622, a relative viability ([23]; first compound 0.1265 µM) of 0.63 and a relative viability ([23]; first compound 0.4 µM) of 0.613. For the same compound, the relative viability ([23]; first compound 1.265 µM) was 0.566, the relative viability ([23]; first compound 4 µM) was 0.648 and the relative viability ([24]; first compound 0.04 µM) was 0.819. The relative viability ([24]; first compound 0.1265 µM) was 0.944, the relative viability ([24]; first compound 0.4 µM) was 0.826 and the relative viability ([24]; first compound 1.265 µM) was 0.558. It also gave a relative viability ([24]; first compound 4 µM) of 0.416.

— the supplement of paper PMC10307832
